The numbers were not newly measured in patent publication US20100203024A1 (priority 2006, published 2010), which cites them from elsewhere.

In the series the test system is non-small-cell lung cancer. The following applies: patients with refractory disease.

`C#Cc1cccc(Nc2ncnc3cc(OCCOC)c(OCCOC)cc23)c1` [erlotinib]: the “partial responses, percent of patients” value is 9%.
